In this assay the test system is T1, PPO (polyphenoloxidase from Pacific white shrimp cephalothorax).
T1 construct: gene proPO; crude native extract of cephalothorax powder; not purified; isoenzyme not identified (hemocyanin-derived activity not excluded); docking model 3WKY is not the assayed protein
The assay can be described thus: dopachrome absorbance at […] nm, Lineweaver-Burk. The settings on record: no inhibitor (0 mg/mL); crude extract; pH 6.0, 45 °C per activity assay; unit as in table footnote but substrate was dosed 2.5-25 mM, so unit is doubtful (possibly mM). It counts as biochemical, Penaeus vannamei.

Take `N[C@@H](Cc1ccc(O)c(O)c1)C(=O)O` [L-DOPA]: the “Concentration (mg/mL) / 0” value is 7.0695 mg/mL.

The record behind these values is paper PMC10385636, “Inhibition Mechanism of Chitooligosaccharide-Polyphenol Conjugates toward Polyphenoloxidase from Shrimp Cephalothorax” (Molecules, 2023).
